Where two headings read alike, the source gives them in different places.
Experiments:
BRD4-BD1 = BRD4-BD1 (Homo sapiens (Human), UniProt O60885); assay: bromoKdELECT assay for binding affinity to BRD4-BD1; conditions: 11-point 3-fold dilution
[1] = test system: T-Rex 293 cell line SC3 cells lacking increased expression of androgen receptor protein; assay: Cellular growth inhibition, T-Rex 293 SC3 cells lacking increased androgen receptor expression (no doxycycline), CellTiter-Glo; format: cell-based; conditions: T-Rex 293 SC3 cells lacking increased androgen receptor expression (not exposed to doxycycline), 72 hours, CellTiter-Glo; read-out: GI50
How it was run: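 SC3, a T-Rex 293 clone with doxycycline-inducible wild-type androgen receptor, was seeded in phenol red-free DMEM with 10% charcoal-dextran FBS, with or without 10 ng/mL doxycycline. Compound added at 24 h (0.5% DMSO) for 72 h at 37° C. CellTiter-Glo 2.0 luminescence; GI50 from four-parameter fit.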

VCaP cells = assay: Cellular growth inhibition assay for VCaP cells, CellTiter-Glo; format: cell-based, human; conditions: VCaP cells, 72 hours, CellTiter-Glo, read-out: GI50
How it was run: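 GI50 values come from four-parameter curve fits of luminescence data normalized to a zero baseline. Compound, in medium with 0.5% DMSO, was added one day after plating and left for 72 h before CellTiter-Glo 2.0 addition.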

| Kd (BRD4-BD1) [nM] | GI50 (VCaP cells; Homo sapiens) [nM] | GI50 (VCaP cells) [nM] | Structure (SMILES) | GI50 [1] [nM] |
| --- | --- | --- | --- | --- |
| 500 to 2500 | < 500 | – | Cn1cc(-c2cc(C(C)(C)O)ccc2Oc2c(F)cc(CCOC3CCN(c4ccc(C(=O)N[C@H]5CC[C@H](Oc6ccc(C#N)c(Cl)c6)CC5)nn4)CC3)cc2F)c2cc[nH]c2c1=O [I-109] | < 500 |
| 500 to 2500 | < 500 | – | Cn1cc(-c2cc(C(C)(C)O)ccc2Oc2ccc(OC3CN(c4ccc(C(=O)N[C@H]5CC[C@H](Oc6ccc(C#N)c(Cl)c6)CC5)nn4)C3)cc2)c2cc[nH]c2c1=O [I-95, N-[4-(3-chloro-4-cyano-phenoxy)cyclohexyl]-6-[3-[4-[4-(1-hydroxy-1-methyl-ethyl)-2-(6-methyl-7-oxo-1H-pyrrolo[2,3-c]pyridin-4-yl)phenoxy]phenoxy]azetidin-1-yl]pyridazine-3-carboxamide] | < 500 |
| 50 to 500 | < 500 | – | CCS(=O)(=O)c1ccc(Oc2cccc(CCC3CCN(c4ccc(C(=O)N[C@H]5CC[C@H](Oc6ccc(C#N)c(Cl)c6)CC5)nn4)CC3)c2F)c(-c2cn(C)c(=O)c3[nH]ccc23)c1 [I-51] | < 500 |
| 50 to 500 | – | < 500 | CCS(=O)(=O)c1ccc(Oc2cccc(CCCC3CCN(c4ccc(C(=O)N[C@H]5CC[C@H](Oc6ccc(C#N)c(Cl)c6)CC5)nn4)CC3)c2F)c(-c2cn(C)c(=O)c3[nH]ccc23)c1 [I-52] | < 500 |

Further lines, the compound ahead of its results:

| Structure (SMILES) | Kd (BRD4-BD1) [nM] | GI50 (VCaP cells; Homo sapiens) [nM] | GI50 (VCaP cells) [nM] | GI50 [1] [nM] |
| --- | --- | --- | --- | --- |
| CCS(=O)(=O)c1ccc(Oc2cccc(CCCOC3CC4(C3)CN(c3ccc(C(=O)N[C@H]5CC[C@H](Oc6ccc(C#N)c(Cl)c6)CC5)nn3)C4)c2F)c(-c2cn(C)c(=O)c3[nH]ccc23)c1 [I-46] | 500 to 2500 | < 500 | – | < 500 |
| CCS(=O)(=O)c1ccc(Oc2cc(F)c(CCC3CCN(c4ccc(C(=O)N[C@H]5CC[C@H](Oc6ccc(C#N)c(Cl)c6)CC5)nn4)CC3)cc2F)c(-c2cn(C)c(=O)c3[nH]ccc23)c1 [I-59] | 500 to 2500 | – | < 500 | < 500 |
| CCS(=O)(=O)Nc1ccc(Oc2cccc(OCCOC3CCN(c4ccc(C(=O)N[C@H]5CC[C@H](Oc6ccc(C#N)c(Cl)c6)CC5)nn4)CC3)c2)c(-c2cn(C)c(=O)c3[nH]ccc23)c1 [I-1, N-[4-(3-chloro-4-cyano-phenoxy)cyclohexyl]-6-[4-[2-[3-[4-(ethylsulfonylamino)-2-(6-methyl-7-oxo-1H-pyrrolo[2,3-c]pyridin-4-yl)phenoxy]phenoxy]ethoxy]-1-piperidyl]pyridazine-3-carboxamide] | – | < 500 | – | < 500 |
| Cn1cc(-c2cc(C(C)(C)O)ccc2O[C@H]2C[C@H](N(C)CC3CCN(c4ccc(C(=O)N[C@H]5CC[C@H](Oc6ccc(C#N)c(Cl)c6)CC5)nn4)CC3)C2)c2cc[nH]c2c1=O [I-158, N-((1r,4r)-4-(3-chloro-4-cyanophenoxy)cyclohexyl)-6-(4-((((1r,3r)-3-(4-(2-hydroxypropan-2-yl)-2-(6-methyl-7-oxo-6,7-dihydro-1H-pyrrolo[2,3-c]pyridin-4-yl)phenoxy)cyclobutyl)(methyl)amino)methyl)piperidin-1-yl)pyridazine-3-carboxamide] | 50 to 500 | < 500 | – | < 500 |
| Cn1cc(-c2cc(C(C)(C)O)ccc2Oc2ccc(CCC3CCN(c4ccc(C(=O)N[C@H]5CC[C@H](Oc6ccc(C#N)c(Cl)c6)CC5)nn4)CC3)cc2)c2cc[nH]c2c1=O [I-102] | > 2500 | – | < 500 | 500 to 1500 |

— US20250388575A1, “HETEROBIFUNCTIONAL COMPOUNDS AND METHODS OF TREATING DISEASE” (Halda Therapeutics OpCo, Inc., priority 2022, published 2025)
